Columns and labels:
[1] = test system: Plasmodium vivax liver stage (primary human hepatocyte culture)
Protocol: (§1)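 Dose-response of P. vivax liver stages in primary human hepatocytes, with 8 points (10 uM-[…], v1) or 12 points in duplicate (50 uM-280 pM, v2). Read-out is high-content imaging of schizont net growth area, hypnozoite quantity and hepatic nuclei. EC50 and CC20 (20% nuclei loss) were fitted in CDD Vault from the highest-quality independent experiment; toxic-dose bell-shaped points were masked. '>' marks the highest concentration with less than 50% activity, and ND means a non-sigmoidal curve.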

[2] = test system: Plasmodium cynomolgi Berok K4 asexual blood stage; assay: EC50 asexual blood stage growth
Protocol: (§2)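 The Reference Compound Library was tested by 10-point 3-fold dose response against P. cynomolgi Berok K4 asexual blood stages (SYBR proliferation assay, mefloquine background control). Culture medium contained 0.5% AlbuMAX or 20% M. fascicularis serum. P. falciparum 3D7 was tested in a 72-h SYBR Green assay with 0.5% AlbuMAX. Values are geometric mean EC50 over independent experiments; 10 uM is the top dose.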

[3] = test system: Plasmodium falciparum 3D7 asexual blood stage; assay: EC50 asexual blood stage growth; conditions: serum: 0.5% AlbuMAX
Protocol: as §2

[4] = test system: primary human hepatocytes; assay: CC20 hepatic nuclei (20% reduction); higher = less toxic
Protocol: as §1

[5] = test system: Plasmodium vivax liver stage (primary human hepatocyte culture); assay: maximum inhibition of schizont net growth area; higher = more active
Protocol: as §1

[6] = P. vivax isolate: Pv914, hepatocyte lot: BGW, assay mode: Prophylactic, 6-day
[7] = serum: 20% M. fascicularis serum
[8] = P. vivax isolate: Pv668, hepatocyte lot: BGW, assay mode: Radical Cure, 8-day (treatment from day 5 post-infection)
[9] = P. vivax isolate: Pv360, hepatocyte lot: UBV, assay mode: Radical Cure, 8-day (treatment from day 5 post-infection)
[10] = P. vivax isolate: Pv992, hepatocyte lot: BGW, assay mode: Prophylactic, 6-day
[11] = P. vivax isolate: Pv557, hepatocyte lot: UBV, assay mode: Radical Cure, 8-day (treatment from day 5 post-infection)
[12] = P. vivax isolate: Pv796, hepatocyte lot: BGW, assay mode: Radical Cure, 8-day (treatment from day 5 post-infection)
[13] = P. vivax isolate: Pv914, hepatocyte lot: BGW, assay mode: Radical Cure, 8-day (treatment from day 5 post-infection)
[14] = P. vivax isolate: IVS16-38, hepatocyte lot: PDC, assay mode: Prophylactic, 6-day
[15] = P. vivax isolate: Pv923, hepatocyte lot: BGW, assay mode: Radical Cure, 8-day (treatment from day 5 post-infection)

| Compound | EC50 hypnozoite quantity [1, 6] [nM] | EC50 asexual blood stage growth ([2]; serum: 0.5% AlbuMAX) [nM] | EC50 asexual blood stage growth [2, 7] [nM] | EC50 asexual blood stage growth [3] [nM] | CC20 hepatic nuclei [4, 6] [nM] | maximum inhibition [5, 6] [%] | EC50 schizont net growth area [1, 6] [nM] | other results |
| --- | --- | --- | --- | --- | --- | --- | --- | --- |
| CCN(CC)CCCNc1ccnc2cc(Cl)ccc12 [AQ-13] | > 10000 | 78.7 | 55.9 | 16 | > 10000 | 56.1 |  |  |
| CCNCc1cc(Nc2ccnc3cc(Cl)ccc23)ccc1O [N-Desethylamodiaquine] | > 10000 | 22.2 | 11.5 | 56 | > 10000 | 74.5 | > 3330 |  |
| CN(C)[C@@H]1C(O)=C(C(N)=O)C(=O)[C@@]2(O)C(O)=C3C(=O)c4c(O)cccc4[C@@](C)(O)[C@H]3C[C@@H]12 [Tetracycline] | > 10000 | > 10000 | > 10000 | > 10000 | > 10000 | 56.7 |  |  |
| O[C@H](c1cc(C(F)(F)F)nc2c(C(F)(F)F)cccc12)[C@@H]1CCCCN1 [(+)-Mefloquine] | 14800 | 31.2 | 60 | 17.9 | 13200 | 98.7 | 5730 | EC50 hypnozoite quantity [1, 8]: > 50000 nM; CC20 hepatic nuclei [4, 8]: 23300 nM; maximum inhibition [5, 8]: 93.9% |
| C=C(NC(=O)C(=C)NC(=O)c1csc(C2=NC3c4csc(n4)C4NC(=O)c5csc(n5)C(C(C)(O)C(C)O)NC(=O)C5CSC(=N5)C(=CC)NC(=O)C(C(C)O)NC(=O)c5csc(n5)C3(CC2)NC(=O)C(C)NC(=O)C(=C)NC(=O)C(C)NC(=O)C(C(C)CC)NC2C=Cc3c(C(C)O)cc(nc3C2O)C(=O)OC4C)n1)C(N)=O (stereo not drawn) [Thiostrepton] | 4040 | 3930 | 9130 | > 10000 | > 3330 | 99.1 | 2390 | EC50 hypnozoite quantity [1, 9]: > 10000 nM; EC50 schizont net growth area [1, 9]: > 3330 nM; CC20 hepatic nuclei [4, 9]: > 10000 nM; maximum inhibition [5, 9]: 80.2% |
| CCN(CC)CCCC(C)Nc1cc(OC)cc2cccnc12 (stereo not drawn) [Pamaquine] |  | 325 | 187 | 3950 |  |  |  | EC50 hypnozoite quantity [1, 10]: > 3330 nM; EC50 schizont net growth area [1, 10]: > 10000 nM; CC20 hepatic nuclei [4, 10]: > 10000 nM; maximum inhibition [5, 10]: 61% |
| CCCCCCC[C@H]1CN[C@H](C(=O)NC(C(C)Cl)C2O[C@H](SC)[C@H](O)[C@@H](O)[C@H]2O)C1 (stereo partly drawn) [Trans-Mirincamycin] | > 10000 | > 10000 | > 10000 | > 10000 | > 10000 | 72.5 |  |  |
| CCCCCCC[C@@H]1CN[C@H](C(=O)NC(C(C)Cl)C2O[C@H](SC)[C@H](O)[C@@H](O)[C@H]2O)C1 (stereo partly drawn) [Cis-Mirincamycin] | > 10000 | 7990 | > 10000 | > 10000 | > 10000 | 69.3 |  |  |
| Nc1ncc(-c2ccc(C(=O)N3CCNCC3)cc2)nc1-c1ccc(C(F)(F)F)cc1 [UCT943] | 4.27 | 34.4 | 20.6 | 318 | > 10000 | 100 | 1.75 | EC50 hypnozoite quantity [1, 11]: > 10000 nM; EC50 schizont net growth area [1, 11]: 2.38 nM; CC20 hepatic nuclei [4, 11]: > 10000 nM; maximum inhibition [5, 11]: 101% |
| OC(c1cc(C(F)(F)F)nc2c(C(F)(F)F)cccc12)C1CCCCN1 (racemic) [(±)-Mefloquine] | > 10000 | 219 | 66.4 | 90.1 | > 3330 | 86 | > 1110 |  |
| N#Cc1cc(NC(=O)C2c3ccccc3C(=O)N(CC(F)(F)F)C2c2cccnc2)ccc1F (stereo not drawn) [SJ733] |  | 538 | 293 | 106 |  |  |  | EC50 hypnozoite quantity [1, 12]: > 50000 nM; CC20 hepatic nuclei [4, 12]: > 50000 nM; maximum inhibition [5, 12]: 56.8% |
| COc1ccc2nc3cc(Cl)ccc3c(Nc3cc(CN4CCCC4)c(O)c(CN4CCCC4)c3)c2n1 [Pyronaridine] | > 3330 | 3.5 | 4 | 5 | 7910 | 99.4 | > 3330 |  |
| Cc1nc(Nc2ncc(N3CCN(C)C(C)C3)c(Nc3cc(C)n(C)n3)n2)cc(C2CC2)c1F (stereo not drawn) [AZ412] | > 3330 | 76.8 | 56.7 | 23.2 | > 10000 | 99.7 | 686 | EC50 hypnozoite quantity [1, 9]: > 10000 nM; EC50 schizont net growth area [1, 9]: 381 nM; CC20 hepatic nuclei [4, 9]: > 10000 nM; maximum inhibition [5, 9]: 104% |
| O=C(NCCN1CCCC1)c1cc(-c2ccc(CN3CCOCC3)cc2)nc2ccc(F)cc12 | 10.4 | 1.5 | 0.7 | 1 | > 10000 | 101 | 2.57 | EC50 hypnozoite quantity [1, 13]: > 10000 nM; EC50 schizont net growth area [1, 13]: 2.35 nM; CC20 hepatic nuclei [4, 13]: > 10000 nM; maximum inhibition [5, 13]: 92.3% |
| CCC1OC(=O)C(C)C(OC2CC(C)(OC)C(O)C(C)O2)C(C)C(OC2OC(C)CC(N(C)C)C2O)C(C)(O)CC(C)CN(C)C(C)C(O)C1(C)O (stereo not drawn) [Azithromycin] | > 10000 | > 10000 | > 10000 | > 10000 | > 10000 | 63.3 | > 370 |  |
| CCN(CC)Cc1cc(Nc2ccnc3cc(Cl)ccc23)ccc1O [Amodiaquine] |  | 19.8 | 8.1 | 6 |  |  |  | EC50 hypnozoite quantity [1, 10]: > 10000 nM; EC50 schizont net growth area [1, 10]: 14.1 nM; CC20 hepatic nuclei [4, 10]: > 10000 nM; maximum inhibition [5, 10]: 87.2% |
| COc1cc(NC(C)CCCN)c2nccc(C)c2c1Oc1ccc(Cl)c(Cl)c1 (stereo not drawn) [NPC-1161B] | > 10000 | 2760 | 8200 | 2860 | > 10000 | 91.9 | > 370 |  |
| Cc1cc(Nc2ccc(S(F)(F)(F)(F)F)cc2)n2nc(C(C)(F)F)nc2n1 [DSM265] |  | 6.4 | 62.5 | 11 |  |  |  | EC50 hypnozoite quantity [1, 14]: > 3070 nM; EC50 schizont net growth area [1, 14]: 126 nM; EC50 hypnozoite quantity [1, 15]: > 10000 nM; EC50 schizont net growth area [1, 15]: > 1110 nM; CC20 hepatic nuclei [4, 14]: > 3070 nM; CC20 hepatic nuclei [4, 15]: > 10000 nM; maximum inhibition [5, 14]: 100%; maximum inhibition [5, 15]: 69.4% |
| CCc1nc(N)nc(N)c1OCCCOc1ccccc1CCC(=O)O [P218] | > 10000 | 0.7 | 1.7 | 2 | > 10000 | 101 | 51.1 |  |
| CC(C)N=C(N)N=C(N)Nc1ccc(Cl)c(Cl)c1 [Chlorproguanil] | > 10000 | 8450 | > 10000 | 5340 | > 10000 | 98.1 | > 1110 |  |
